Here are results for one compound from patent US20080107625A1, “Inhibitors of Hepatitis C Virus” (Bristol-Myers Squibb Company, priority 2006, published 2008).

`CC(C)(C)OC(=O)N[C@H]1CCCOC/C=C\[C@@H]2C[C@@]2(C(=O)NS(=O)(=O)C2CC2)NC(=O)[C@@H]2C[C@@H](OCc3ccccc3)CN2C1=O` [Compound 5, (1S,4R,6S,14S,18R,7-cis)-18-benzyloxy-14-tert-butoxycarbonylamino-4-cyclopropanesulfonylaminocarbonyl-2,15-dioxo-3,16-diaza-10-oxatricyclo[14.3.0.04,6]nonadec-7-ene] displayed a melting point of 147 to 149 °C.
